From patent US20230085307A1, “PYRIDAZINONE COMPOUND AND HERBICIDE” (NISSAN CHEMICAL CORPORATION, priority 2019, published 2023)

Columns and labels:
[1] = system: wild oat; assay: Test Example 5: herbicidal effect by foliage application, plastic box (Table 20, symbol I); type: in vivo, wild oat (Avena fatua); settings: foliage application, 320 g/ha; for I: wild oat, herbicidal effect grade: three weeks after application
Procedure, shortened: (§1)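 Plants were sown into sterilized diluvial soil under about 1.5 cm cover and kept in a greenhouse at 25° C. to 30° C. Fourteen days on, foliage received an even spray of the diluted emulsion. Herbicidal or crop effect was judged three weeks afterwards.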

[2] = system: southern crabgrass; assay: Test Example 4: herbicidal effect by soil treatment (Table 19, symbol F); type: in vivo, southern crabgrass (Digitaria ciliaris); settings: amount of applied herbicide 320 g/ha
Procedure, shortened: (§2)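 Pre-emergence style soil spray: seeds under ~1.5 cm sterilized diluvial soil received a uniform coat of emulsion diluted to the predetermined herbicide amount. Greenhouse 25–30° C; readout at week three on previously defined criteria.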

[3] = system: late watergrass; assay: Test Example 1: herbicidal activity, application before weed generation under submerged conditions (Table 16, symbol A); type: in vivo, late watergrass (Echinochloa oryzicola); settings: amount of applied herbicide 320 g/ha
Procedure, shortened: (§3)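 Submerged Wagner pots (alluvial soil, 4 cm water) sown with weed seeds and planted with 2.5-leaf rice seedlings; emulsifiable concentrate diluted in water applied to water surface on sowing day. Held in greenhouse at 25-30 °C; injury scored 0-5 by herbicidal rate after three weeks.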

[4] = system: Japanese bulrush; assay: Test Example 1: herbicidal activity, application before weed generation under submerged conditions (Table 16, symbol B); type: in vivo, Japanese bulrush (Schoenoplectus juncoides); settings: amount of applied herbicide 320 g/ha
Procedure, shortened: as §3

[5] = system: lambsquarters; assay: Test Example 5: herbicidal effect by foliage application, plastic box (Table 20, symbol O); type: in vivo, lambsquarters (Chenopodium album); settings: foliage application, 320 g/ha; for O: lambsquarters, herbicidal effect grade: three weeks after application
Procedure, shortened: as §1

[6] = system: southern crabgrass; assay: Test Example 5: herbicidal effect by foliage application, plastic box (Table 20, symbol F); type: in vivo, southern crabgrass (Digitaria ciliaris); settings: foliage application, 320 g/ha; for F: southern crabgrass, herbicidal effect grade: three weeks after application
Procedure, shortened: as §1

[7] = system: Chinese sprangletop; assay: Test Example 3: herbicidal effect by foliage application, Wagner pot (Table 18, symbol D); type: in vivo, chinese sprangletop (Leptochloa chinensis)
Procedure, shortened: (§4)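 Plants were sown in alluvial soil held under 0.1–0.5 cm standing water and grown 14 days in a greenhouse at 25–30 °C. An emulsifiable formulation, water-diluted to the set dose, was then sprayed onto the foliage, and effects were scored three weeks later using previously defined criteria.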

[8] = system: oval-leafed pondweed; assay: Test Example 1: herbicidal activity, application before weed generation under submerged conditions (Table 16, symbol C); type: in vivo, oval-leafed pondweed (Monochoria vaginalis); settings: amount of applied herbicide 320 g/ha
Procedure, shortened: as §3

[9] = system: oval-leafed pondweed; assay: Test Example 2: herbicidal activity, application during weed generation under submerged conditions (Table 17, symbol C); type: in vivo, oval-leafed pondweed (Monochoria vaginalis); settings: AAH 320 g/ha; application during weed generation, submerged conditions
Procedure, shortened: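 In this pot test, flooded alluvial soil (water depth 4 cm) holds all three species sown as a mixture. Once seedlings have one to two leaves, the compound's emulsion, thinned with water to the intended dose, is poured on the water; grading follows after three weeks on the earlier criteria.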

[10] = system: rice flat sedge; assay: Test Example 3: herbicidal effect by foliage application, Wagner pot (Table 18, symbol E); type: in vivo, rice flat sedge (Cyperus iria)
Procedure, shortened: as §4

[11] = system: false cleavers; assay: Test Example 4: herbicidal effect by soil treatment (Table 19, symbol Q); type: in vivo, false cleavers (Galium spurium); settings: amount of applied herbicide 320 g/ha
Procedure, shortened: as §2

[12] = system: redroot pigweed; assay: Test Example 4: herbicidal effect by soil treatment (Table 19, symbol N); type: in vivo, redroot pigweed (Amaranthus retroflexus); settings: amount of applied herbicide 320 g/ha
Procedure, shortened: as §2

[13] = system: green foxtail; assay: Test Example 5: herbicidal effect by foliage application, plastic box (Table 20, symbol G); type: in vivo, green foxtail (Setaria viridis); settings: foliage application, 320 g/ha; for G: green foxtail, herbicidal effect grade: three weeks after application
Procedure, shortened: as §1

[14] = system: persian speedwell; assay: Test Example 4: herbicidal effect by soil treatment (Table 19, symbol R); type: in vivo, Persian speedwell (Veronica persica); settings: amount of applied herbicide 320 g/ha
Procedure, shortened: as §2

[15] = system: windgrass; assay: Test Example 5: herbicidal effect by foliage application, plastic box (Table 20, symbol L); type: in vivo, windgrass (Apera spica-venti); settings: foliage application, 320 g/ha; for L: windgrass, herbicidal effect grade: three weeks after application
Procedure, shortened: as §1

[16] = system: windgrass; assay: Test Example 4: herbicidal effect by soil treatment (Table 19, symbol L); type: in vivo, windgrass (Apera spica-venti); settings: amount of applied herbicide 320 g/ha
Procedure, shortened: as §2

[17] = system: barnyard grass; assay: Test Example 5: herbicidal effect by foliage application, plastic box (Table 20, symbol H); type: in vivo, barnyard grass (Echinochloa crus-galli); settings: foliage application, 320 g/ha; for H: barnyard grass, herbicidal effect grade: three weeks after application
Procedure, shortened: as §1

[18] = amount of applied herbicide 320 g/ha
[19] = evaluated 3 weeks after application

SMILES | I: wild oat, herbicidal effect grade [1] | herbicidal effect, F: southern crabgrass [2] | Herbicidal effect, A: late watergrass [3] | Herbicidal effect, B: Japanese bulrush [4] | O: lambsquarters, herbicidal effect grade [5] | F: southern crabgrass, herbicidal effect grade [6] | herbicidal effect on D: Chinese sprangletop [7, 18] | Herbicidal effect, C: oval-leafed pondweed [8] | herbicidal effect rating, C: oval-leafed pondweed [9] | herbicidal effect on E: rice flat sedge [10, 18] | herbicidal effect, Q: false cleavers [11] | herbicidal effect, N: redroot pigweed [12] | G: green foxtail, herbicidal effect grade [13] | herbicidal effect, R: persian speedwell [14] | L: windgrass, herbicidal effect grade [15] | herbicidal effect, L: windgrass [16] | H: barnyard grass, herbicidal effect grade [17] | Q: false cleavers, herbicidal effect grade [11] | N: redroot pigweed, herbicidal effect grade [12] | R: persian speedwell, herbicidal effect grade [14] | also measured
CCCC(=O)Oc1c(C)nn(C)c(=O)c1-c1c(-c2ccccc2OC)sc2cc(F)ccc12 [3-004] | 4 (Herbicidal rate of 70% or more and less than 90%) | 4 (Herbicidal rate of 70% or more and less than 90%) | 5 (Herbicidal rate of 90% or more (almost completely withered)) | 3 (Herbicidal rate of 40% or more and less than 70%) | 5 (Herbicidal rate of 90% or more (almost completely withered)) | 3 (Herbicidal rate of 40% or more and less than 70%) | 4 (Herbicidal rate of 70% or more and less than 90%) | 3 (Herbicidal rate of 40% or more and less than 70%) | 4 (Herbicidal rate of 70% or more and less than 90%) | 5 (Herbicidal rate of 90% or more (almost completely withered)) | 5 (Herbicidal rate of 90% or more (almost completely withered)) | 5 (Herbicidal rate of 90% or more (almost completely withered)) | 4 (Herbicidal rate of 70% or more and less than 90%) | 4 (Herbicidal rate of 70% or more and less than 90%) | 5 (Herbicidal rate of 90% or more (almost completely withered)) | 5 (Herbicidal rate of 90% or more (almost completely withered)) | 5 (Herbicidal rate of 90% or more (almost completely withered)) |  |  |  | 
COc1ccc(-c2sc3cc(F)ccc3c2-c2c(O)c(C)nn(C)c2=O)cc1 [3-005] | 3 (Herbicidal rate of 40% or more and less than 70%) | 0 (Herbicidal rate of 5% or less (almost no effect)) | 4 (Herbicidal rate of 70% or more and less than 90%) | 4 (Herbicidal rate of 70% or more and less than 90%) | 5 (Herbicidal rate of 90% or more (almost completely withered)) | 3 (Herbicidal rate of 40% or more and less than 70%) | 3 (Herbicidal rate of 40% or more and less than 70%) | 4 (Herbicidal rate of 70% or more and less than 90%) | 4 (Herbicidal rate of 70% or more and less than 90%) | 5 (Herbicidal rate of 90% or more (almost completely withered)) | 0 (Herbicidal rate of 5% or less (almost no effect)) | 5 (Herbicidal rate of 90% or more (almost completely withered)) | 4 (Herbicidal rate of 70% or more and less than 90%) | 4 (Herbicidal rate of 70% or more and less than 90%) | 3 (Herbicidal rate of 40% or more and less than 70%) | 0 (Herbicidal rate of 5% or less (almost no effect)) | 3 (Herbicidal rate of 40% or more and less than 70%) |  |  |  | 
CCCC(=O)Oc1c(C)nn(C)c(=O)c1-c1c(-c2ccccc2OCC)sc2cc(F)ccc12 [3-007] | 5 (Herbicidal rate of 90% or more (almost completely withered)) | 4 (Herbicidal rate of 70% or more and less than 90%) | 5 (Herbicidal rate of 90% or more (almost completely withered)) | 5 (Herbicidal rate of 90% or more (almost completely withered)) | 5 (Herbicidal rate of 90% or more (almost completely withered)) | 5 (Herbicidal rate of 90% or more (almost completely withered)) | 5 (Herbicidal rate of 90% or more (almost completely withered)) | 4 (Herbicidal rate of 70% or more and less than 90%) | 4 (Herbicidal rate of 70% or more and less than 90%) | 5 (Herbicidal rate of 90% or more (almost completely withered)) | 5 (Herbicidal rate of 90% or more (almost completely withered)) | 4 (Herbicidal rate of 70% or more and less than 90%) | 5 (Herbicidal rate of 90% or more (almost completely withered)) | 4 (Herbicidal rate of 70% or more and less than 90%) | 5 (Herbicidal rate of 90% or more (almost completely withered)) | 5 (Herbicidal rate of 90% or more (almost completely withered)) | 5 (Herbicidal rate of 90% or more (almost completely withered)) |  |  |  | 
CCCC(=O)Oc1c(C)nn(C)c(=O)c1-c1c(-c2ccc(F)cc2OCC)sc2cc(OCC)ccc12 [3-096] | 5 (Herbicidal rate of 90% or more (almost completely withered)) |  | 5 (Herbicidal rate of 90% or more (almost completely withered)) | 5 (Herbicidal rate of 90% or more (almost completely withered)) | 5 (Herbicidal rate of 90% or more (almost completely withered)) | 5 (Herbicidal rate of 90% or more (almost completely withered)) |  | 5 (Herbicidal rate of 90% or more (almost completely withered)) | 4 (Herbicidal rate of 70% or more and less than 90%) |  |  |  | 4 (Herbicidal rate of 70% or more and less than 90%) |  | 5 (Herbicidal rate of 90% or more (almost completely withered)) |  | 5 (Herbicidal rate of 90% or more (almost completely withered)) | 5 (Herbicidal rate of 90% or more (almost completely withered)) | 5 (Herbicidal rate of 90% or more (almost completely withered)) | 5 (Herbicidal rate of 90% or more (almost completely withered)) | herbicidal effect on Chinese sprangletop (D) ([7]; 320 g/ha): 5 (Herbicidal rate of 90% or more (almost completely withered)); herbicidal effect on rice flat sedge (E) ([10]; 320 g/ha): 5 (Herbicidal rate of 90% or more (almost completely withered)); L: windgrass, herbicidal effect grade [16]: 5 (Herbicidal rate of 90% or more (almost completely withered))
COCCOc1ccc(-c2oc3ccc(F)cc3c2-c2c(O)c(C)nn(C)c2=O)cc1 [9-045] |  |  | 5 (Herbicidal rate of 90% or more (almost completely withered)) | 5 (Herbicidal rate of 90% or more (almost completely withered)) |  |  |  | 5 (Herbicidal rate of 90% or more (almost completely withered)) | 5 (Herbicidal rate of 90% or more (almost completely withered)) |  |  |  |  |  |  |  |  | 0 (Herbicidal rate of 5% or less (almost no effect)) | 5 (Herbicidal rate of 90% or more (almost completely withered)) | 4 (Herbicidal rate of 70% or more and less than 90%) | I (wild oat) herbicidal effect grade [1, 19]: 2 (Herbicidal rate of 20% or more and less than 40%); F: southern crabgrass, herbicidal effect grade [2]: 5 (Herbicidal rate of 90% or more (almost completely withered)); O (lambsquarters) herbicidal effect grade [5, 19]: 5 (Herbicidal rate of 90% or more (almost completely withered)); F (southern crabgrass) herbicidal effect grade [6, 19]: 5 (Herbicidal rate of 90% or more (almost completely withered)); Herbicidal effect on D (Chinese sprangletop), foliage application [7, 18]: 3 (Herbicidal rate of 40% or more and less than 70%); Herbicidal effect on E (rice flat sedge), foliage application [10, 18]: 5 (Herbicidal rate of 90% or more (almost completely withered)); G (green foxtail) herbicidal effect grade [13, 19]: 5 (Herbicidal rate of 90% or more (almost completely withered)); L (windgrass) herbicidal effect grade [15, 19]: 3 (Herbicidal rate of 40% or more and less than 70%); H (barnyard grass) herbicidal effect grade [17, 19]: 5 (Herbicidal rate of 90% or more (almost completely withered))
